# Experimental data published in ChEMBL document CHEMBL1201862, “PubChem BioAssay data set” (2004).
# Calls of active or inactive are those of the source.
# Key:
# [1] = biological target: T1, Corticotropin-releasing factor receptor 2/Corticotropin-releasing factor-binding protein (Homo sapiens, UniProt P24387+Q13324); assay: Dose Response confirmation of uHTS hits for small molecule antagonists of the CRF-binding protein and CRF-R2 receptor complex.; type: functional; conditions: read-out: IC50_Mean
# T1 sequence (Q13324 whole entry): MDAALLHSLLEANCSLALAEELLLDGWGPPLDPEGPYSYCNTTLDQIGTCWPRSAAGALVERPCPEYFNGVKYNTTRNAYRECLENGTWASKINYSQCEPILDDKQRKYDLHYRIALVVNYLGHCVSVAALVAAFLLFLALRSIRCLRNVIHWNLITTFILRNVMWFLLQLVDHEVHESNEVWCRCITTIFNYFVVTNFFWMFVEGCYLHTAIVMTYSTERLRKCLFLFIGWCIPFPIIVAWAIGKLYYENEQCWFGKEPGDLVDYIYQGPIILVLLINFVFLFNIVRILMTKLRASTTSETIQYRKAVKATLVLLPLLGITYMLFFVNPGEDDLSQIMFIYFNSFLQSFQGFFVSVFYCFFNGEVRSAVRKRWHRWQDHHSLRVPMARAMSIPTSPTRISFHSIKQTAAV
# T1 sequence (P24387 whole entry): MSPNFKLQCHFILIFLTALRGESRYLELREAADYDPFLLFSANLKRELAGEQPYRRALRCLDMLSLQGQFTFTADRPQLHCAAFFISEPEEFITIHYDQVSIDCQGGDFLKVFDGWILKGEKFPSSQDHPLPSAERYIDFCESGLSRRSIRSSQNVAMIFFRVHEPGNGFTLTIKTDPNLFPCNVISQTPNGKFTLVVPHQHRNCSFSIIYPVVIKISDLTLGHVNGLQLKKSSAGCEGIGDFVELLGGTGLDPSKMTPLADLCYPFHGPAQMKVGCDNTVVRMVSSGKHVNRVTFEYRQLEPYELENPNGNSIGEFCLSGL
# [2] = biological target: T2, Small ubiquitin-related modifier 1 (Homo sapiens, UniProt P63165); assay: inhibitors of SUMO1 peptide binding, dose response, biochemical, fluorescence polarization, uHTS hits (AID 624382); type: functional; conditions: read-out: IC50_Mean
# T2 sequence (P63165 whole entry): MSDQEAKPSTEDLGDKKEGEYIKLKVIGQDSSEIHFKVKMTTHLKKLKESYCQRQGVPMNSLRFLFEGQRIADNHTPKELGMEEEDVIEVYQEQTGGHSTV
# [3] = biological target: Tyrosine-protein phosphatase non-receptor type 5 (Homo sapiens, UniProt P54829); assay: STEP phosphatase inhibitors, confirmation, biochemical, fluorescence intensity, uHTS hits (AID 602372); type: functional; conditions: read-out: IC50_Mean
# Tyrosine-protein phosphatase non-receptor type 5, sequence (P54829 whole entry): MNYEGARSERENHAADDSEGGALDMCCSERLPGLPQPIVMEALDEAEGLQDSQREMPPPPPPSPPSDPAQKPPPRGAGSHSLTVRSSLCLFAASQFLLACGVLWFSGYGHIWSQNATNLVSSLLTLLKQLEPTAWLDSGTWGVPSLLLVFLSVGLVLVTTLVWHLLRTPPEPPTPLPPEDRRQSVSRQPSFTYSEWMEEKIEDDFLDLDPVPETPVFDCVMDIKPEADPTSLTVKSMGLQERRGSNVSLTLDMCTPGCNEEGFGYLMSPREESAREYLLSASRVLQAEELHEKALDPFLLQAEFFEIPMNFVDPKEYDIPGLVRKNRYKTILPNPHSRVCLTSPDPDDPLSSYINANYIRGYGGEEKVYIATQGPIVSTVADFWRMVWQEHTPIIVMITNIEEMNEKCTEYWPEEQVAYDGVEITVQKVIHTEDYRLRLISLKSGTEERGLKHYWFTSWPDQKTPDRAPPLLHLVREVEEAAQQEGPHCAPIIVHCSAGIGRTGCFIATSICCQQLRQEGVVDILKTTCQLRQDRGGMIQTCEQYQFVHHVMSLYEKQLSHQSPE
# [4] = biological target: Tyrosine-protein phosphatase non-receptor type 11 (Homo sapiens, UniProt Q06124); assay: SHP2 phosphatase inhibition, dose response, selectivity assay for STEP inhibitor project, biochemical (AID 602367); type: functional; conditions: read-out: IC50_Mean
# Tyrosine-protein phosphatase non-receptor type 11, sequence (Q06124 whole entry, the tested form may be a part): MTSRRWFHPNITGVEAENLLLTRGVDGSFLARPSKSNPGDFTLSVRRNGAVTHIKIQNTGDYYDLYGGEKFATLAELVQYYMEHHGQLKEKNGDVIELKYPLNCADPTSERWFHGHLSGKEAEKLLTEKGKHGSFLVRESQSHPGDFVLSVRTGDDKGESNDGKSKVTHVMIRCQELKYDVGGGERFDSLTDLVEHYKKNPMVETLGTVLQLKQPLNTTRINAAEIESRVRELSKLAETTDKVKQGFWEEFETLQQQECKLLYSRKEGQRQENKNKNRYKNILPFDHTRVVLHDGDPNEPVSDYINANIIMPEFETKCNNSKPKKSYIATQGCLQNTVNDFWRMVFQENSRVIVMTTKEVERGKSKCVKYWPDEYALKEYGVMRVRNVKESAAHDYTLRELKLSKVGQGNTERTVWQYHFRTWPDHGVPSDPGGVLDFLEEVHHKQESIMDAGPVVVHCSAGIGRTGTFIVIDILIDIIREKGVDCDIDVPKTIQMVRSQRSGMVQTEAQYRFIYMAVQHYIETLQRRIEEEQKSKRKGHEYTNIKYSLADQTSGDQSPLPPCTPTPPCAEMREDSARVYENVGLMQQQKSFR
# [5] = biological target: T3, Carboxy-terminal domain RNA polymerase II polypeptide A small phosphatase 1 (Homo sapiens, UniProt Q9GZU7); assay: inhibitors of CTDSP1, concentration-response testing, biochemical assay, absorbance-based, actives from ultra-high-throughput screening (AID 540297); type: functional
# T3 sequence (Q9GZU7 whole entry): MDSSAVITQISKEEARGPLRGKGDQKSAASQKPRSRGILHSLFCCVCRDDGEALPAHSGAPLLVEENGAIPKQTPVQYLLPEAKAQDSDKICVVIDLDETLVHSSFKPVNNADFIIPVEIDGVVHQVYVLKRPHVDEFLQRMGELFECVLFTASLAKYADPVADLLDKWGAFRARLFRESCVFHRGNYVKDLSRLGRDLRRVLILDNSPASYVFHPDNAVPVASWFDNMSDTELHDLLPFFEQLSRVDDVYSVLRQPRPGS
# [6] = biological target: T1, Corticotropin-releasing factor receptor 2/Corticotropin-releasing factor-binding protein; assay: activators of CRF receptor 2 with binding protein – uHTS hits, confirmation (AID 602473); type: functional; conditions: read-out: EC50_Mean
# [7] = biological target: T2, Small ubiquitin-related modifier 1; assay: inhibitors of SUMO1 partner interactions, dose response, biochemical, FRET (AID 624383); type: functional; conditions: read-out: IC50_Mean
# [8] = biological target: Dual specificity protein phosphatase 3 (Homo sapiens, UniProt P51452); assay: VHR phosphatase inhibition, dose response, selectivity assay for STEP inhibitor project, biochemical (AID 602374); type: functional; conditions: read-out: IC50_Mean
# Dual specificity protein phosphatase 3, sequence (P51452 whole entry): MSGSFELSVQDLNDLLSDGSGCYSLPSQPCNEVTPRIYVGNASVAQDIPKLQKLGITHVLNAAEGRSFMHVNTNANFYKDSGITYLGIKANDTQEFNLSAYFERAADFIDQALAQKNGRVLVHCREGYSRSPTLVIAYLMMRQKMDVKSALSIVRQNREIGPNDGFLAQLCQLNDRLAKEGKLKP
# [9] = biological target: T4, Tyrosine-protein phosphatase non-receptor type 22 (Homo sapiens, UniProt Q9Y2R2); assay: PTPN22 phosphatase inhibition, dose response, selectivity assay for STEP inhibitor project, biochemical (AID 624241); type: functional
# T4 sequence (Q9Y2R2 whole entry): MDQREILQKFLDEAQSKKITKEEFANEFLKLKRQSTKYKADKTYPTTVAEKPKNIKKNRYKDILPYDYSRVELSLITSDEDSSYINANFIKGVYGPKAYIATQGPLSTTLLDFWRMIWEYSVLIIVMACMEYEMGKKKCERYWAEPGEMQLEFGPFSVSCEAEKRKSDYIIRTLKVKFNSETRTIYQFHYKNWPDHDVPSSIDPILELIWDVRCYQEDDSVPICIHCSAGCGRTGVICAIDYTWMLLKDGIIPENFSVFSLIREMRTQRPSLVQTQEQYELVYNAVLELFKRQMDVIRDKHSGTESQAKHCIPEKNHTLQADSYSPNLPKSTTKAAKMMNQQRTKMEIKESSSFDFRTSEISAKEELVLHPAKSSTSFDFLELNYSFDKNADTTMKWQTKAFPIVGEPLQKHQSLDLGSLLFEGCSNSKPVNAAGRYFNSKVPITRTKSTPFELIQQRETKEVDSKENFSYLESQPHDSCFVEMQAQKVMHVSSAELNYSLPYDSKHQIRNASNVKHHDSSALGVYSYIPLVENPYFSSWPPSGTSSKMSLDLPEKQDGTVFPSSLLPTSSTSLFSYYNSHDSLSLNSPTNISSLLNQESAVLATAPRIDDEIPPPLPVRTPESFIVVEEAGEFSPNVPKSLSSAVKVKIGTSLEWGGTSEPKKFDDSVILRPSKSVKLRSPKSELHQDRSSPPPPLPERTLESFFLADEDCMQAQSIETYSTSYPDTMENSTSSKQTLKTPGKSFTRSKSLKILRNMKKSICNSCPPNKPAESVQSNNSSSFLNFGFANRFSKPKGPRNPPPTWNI
# Mu-type opioid receptor = Mu-type opioid receptor (Homo sapiens, UniProt P35372); type: functional, cell-based;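 further: U2OS cells with beta-arrestin recruitment to OPRM1 by beta-gal complementation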
# [10] = biological target: 5-hydroxytryptamine receptor 2A (Mus musculus, UniProt P35363); type: functional, cell-based;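 further: CHO-K1 cells with tagged receptor and beta-arrestin; agonist potency measured as compound-induced activation of the receptor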
# [11] = biological target: Arf-GAP with SH3 domain, ANK repeat and PH domain-containing protein 1 (Homo sapiens, UniProt Q9ULH1); type: functional;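 further: biochemical fluorescence polarization dose–response screen measuring inhibition of ASAP1; ASAP1 GAP domain stimulating GTP hydrolysis by truncated human ARF1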
# Arf-GAP with SH3 domain, ANK repeat and PH domain-containing protein 1, sequence (Q9ULH1 whole entry, the tested form may be a part): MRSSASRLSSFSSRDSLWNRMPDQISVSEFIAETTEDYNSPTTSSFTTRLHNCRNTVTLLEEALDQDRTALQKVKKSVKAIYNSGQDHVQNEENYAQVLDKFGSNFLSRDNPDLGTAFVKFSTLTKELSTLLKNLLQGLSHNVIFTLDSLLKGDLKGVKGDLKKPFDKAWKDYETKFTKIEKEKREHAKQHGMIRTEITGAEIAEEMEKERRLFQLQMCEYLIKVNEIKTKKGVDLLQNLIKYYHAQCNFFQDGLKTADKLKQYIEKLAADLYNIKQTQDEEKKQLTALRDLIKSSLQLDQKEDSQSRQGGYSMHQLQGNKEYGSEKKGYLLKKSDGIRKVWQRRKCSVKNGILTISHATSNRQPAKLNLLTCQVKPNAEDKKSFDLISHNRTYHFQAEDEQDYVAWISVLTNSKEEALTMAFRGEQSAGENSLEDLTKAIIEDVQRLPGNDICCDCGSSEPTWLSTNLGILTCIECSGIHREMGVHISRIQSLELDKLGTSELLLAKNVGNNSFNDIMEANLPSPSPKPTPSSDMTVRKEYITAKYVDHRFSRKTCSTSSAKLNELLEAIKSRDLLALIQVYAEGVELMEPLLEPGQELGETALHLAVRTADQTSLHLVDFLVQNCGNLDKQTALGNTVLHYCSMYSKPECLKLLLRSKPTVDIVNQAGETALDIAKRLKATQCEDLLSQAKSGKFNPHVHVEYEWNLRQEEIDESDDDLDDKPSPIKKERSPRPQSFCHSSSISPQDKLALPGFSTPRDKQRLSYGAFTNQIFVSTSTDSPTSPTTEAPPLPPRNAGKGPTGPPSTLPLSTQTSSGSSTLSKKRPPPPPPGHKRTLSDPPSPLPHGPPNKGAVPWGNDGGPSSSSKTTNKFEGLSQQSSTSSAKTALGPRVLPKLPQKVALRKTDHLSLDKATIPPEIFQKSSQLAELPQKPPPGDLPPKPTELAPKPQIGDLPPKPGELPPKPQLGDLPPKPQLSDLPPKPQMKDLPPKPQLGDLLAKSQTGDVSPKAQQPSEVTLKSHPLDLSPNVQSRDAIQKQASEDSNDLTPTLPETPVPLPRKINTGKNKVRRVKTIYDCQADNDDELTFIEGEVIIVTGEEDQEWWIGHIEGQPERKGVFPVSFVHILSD
# [12] = biological target: ADP-ribosylation factor GTPase-activating protein 1 (Rattus norvegicus, UniProt Q62848); assay: Fluorescence polarization-based biochemical high throughput dose response screening assay to identify inhibitors of ADP-ribosylation factor GTPase activating protein 1 (ARFGAP1).; type: functional
# ADP-ribosylation factor GTPase-activating protein 1, sequence (Q62848 whole entry): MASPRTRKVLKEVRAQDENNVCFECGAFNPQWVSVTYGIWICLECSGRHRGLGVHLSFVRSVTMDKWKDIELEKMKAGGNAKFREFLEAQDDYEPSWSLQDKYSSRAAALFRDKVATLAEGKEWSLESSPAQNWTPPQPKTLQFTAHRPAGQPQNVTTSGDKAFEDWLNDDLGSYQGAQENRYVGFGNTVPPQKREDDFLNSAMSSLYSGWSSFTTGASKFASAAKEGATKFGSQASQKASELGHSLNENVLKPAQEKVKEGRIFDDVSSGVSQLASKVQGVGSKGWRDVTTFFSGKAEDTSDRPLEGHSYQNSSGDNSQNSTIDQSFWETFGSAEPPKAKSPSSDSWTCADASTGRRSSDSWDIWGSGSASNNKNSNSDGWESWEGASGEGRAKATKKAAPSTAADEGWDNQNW
# [13] = biological target: T5, Methionyl-tRNA synthetase, putative (Trypanosoma brucei brucei, UniProt Q38C91); type: functional, Trypanosoma brucei brucei strain 927/4 GUTat10.1
# T5 sequence (Q38C91 whole entry): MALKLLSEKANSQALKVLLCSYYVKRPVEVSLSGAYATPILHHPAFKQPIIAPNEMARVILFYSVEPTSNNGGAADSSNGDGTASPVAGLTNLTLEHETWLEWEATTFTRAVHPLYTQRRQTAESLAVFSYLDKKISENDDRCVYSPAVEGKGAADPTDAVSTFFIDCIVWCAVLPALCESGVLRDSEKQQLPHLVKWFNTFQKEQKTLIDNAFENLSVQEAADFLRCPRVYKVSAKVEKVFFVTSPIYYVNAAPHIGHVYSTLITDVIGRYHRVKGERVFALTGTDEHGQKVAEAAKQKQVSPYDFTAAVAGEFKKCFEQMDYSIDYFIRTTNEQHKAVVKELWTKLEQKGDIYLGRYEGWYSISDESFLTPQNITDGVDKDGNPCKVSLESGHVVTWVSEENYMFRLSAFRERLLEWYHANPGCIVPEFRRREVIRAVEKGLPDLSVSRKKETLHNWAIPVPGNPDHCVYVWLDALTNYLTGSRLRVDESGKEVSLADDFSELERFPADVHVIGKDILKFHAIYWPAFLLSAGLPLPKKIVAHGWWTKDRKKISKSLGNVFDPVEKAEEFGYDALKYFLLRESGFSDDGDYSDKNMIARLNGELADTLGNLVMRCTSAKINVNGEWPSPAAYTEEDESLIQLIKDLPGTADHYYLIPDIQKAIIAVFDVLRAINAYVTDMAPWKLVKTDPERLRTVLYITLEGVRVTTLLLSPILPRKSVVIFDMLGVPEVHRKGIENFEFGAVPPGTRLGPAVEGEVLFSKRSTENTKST
# [14] = biological target: T5, Methionyl-tRNA synthetase, putative; type: functional, Trypanosoma brucei brucei strain 927/4 GUTat10.1; remark: listed apart in the source
# [15] = Counterscreen for inhibitors of Trypanosoma brucei methionyl tRNA synthetase (MetRS): Luminescence-based cell-based high throughput dose response assay to identify compounds that are cytotoxic to Jurkat human T lymphocyte cells.; type: functional
# Albumin = Albumin (Bos taurus, UniProt P02769); assay: Counterscreen for inhibitors of T-cell receptor (TCR)-CD3 interaction: Fluorescence-based biochemical high throughput dose response assay to identify inhibitors of T-cell receptor (TCR)-CD3 interaction using a TAMRA-labeled BSA probe.; type: functional
# Albumin, sequence (P02769 whole entry): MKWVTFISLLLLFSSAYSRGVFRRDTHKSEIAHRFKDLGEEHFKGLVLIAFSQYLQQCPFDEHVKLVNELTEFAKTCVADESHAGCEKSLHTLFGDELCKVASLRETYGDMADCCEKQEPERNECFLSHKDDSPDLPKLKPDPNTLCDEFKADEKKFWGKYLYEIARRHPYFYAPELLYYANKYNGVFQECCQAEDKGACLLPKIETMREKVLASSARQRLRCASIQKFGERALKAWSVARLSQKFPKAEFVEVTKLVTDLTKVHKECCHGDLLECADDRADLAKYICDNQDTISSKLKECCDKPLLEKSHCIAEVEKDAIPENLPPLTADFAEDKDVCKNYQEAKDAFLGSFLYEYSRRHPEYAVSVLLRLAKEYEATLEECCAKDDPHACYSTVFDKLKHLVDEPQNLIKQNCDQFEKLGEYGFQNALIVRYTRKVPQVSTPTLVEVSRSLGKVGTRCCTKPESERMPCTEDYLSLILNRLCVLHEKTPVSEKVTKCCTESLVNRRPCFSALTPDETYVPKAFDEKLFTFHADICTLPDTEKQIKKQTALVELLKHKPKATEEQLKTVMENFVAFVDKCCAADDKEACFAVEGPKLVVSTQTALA
# [16] = Luminescence Cell-Based Dose Retest to Confirm Inhibitors of Cancer Stem Cells. [Related pubchem assays (depositor defined):AID2717, AID2721]; type: functional; conditions: Homo sapiens
# [17] = biological target: T6, Beta-2 adrenergic receptor (Homo sapiens, UniProt P07550); assay: beta2AR agonists driving receptor internalization, dose response, cell-based, FAP fluorogen, flow cytometry, cherry pick 1 (AID 588763); type: functional
# T6 sequence (P07550 whole entry): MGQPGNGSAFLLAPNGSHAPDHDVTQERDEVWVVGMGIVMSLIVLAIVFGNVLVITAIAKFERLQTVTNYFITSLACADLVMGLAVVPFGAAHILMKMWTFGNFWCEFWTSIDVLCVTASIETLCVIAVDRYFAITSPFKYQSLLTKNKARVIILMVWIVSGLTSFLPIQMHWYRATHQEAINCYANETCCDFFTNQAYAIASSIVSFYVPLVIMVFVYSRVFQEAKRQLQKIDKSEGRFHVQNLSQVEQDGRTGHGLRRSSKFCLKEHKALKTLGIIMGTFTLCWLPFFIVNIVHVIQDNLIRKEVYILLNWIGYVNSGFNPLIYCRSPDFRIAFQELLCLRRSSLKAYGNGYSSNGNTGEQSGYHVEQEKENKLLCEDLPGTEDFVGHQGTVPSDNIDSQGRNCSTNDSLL
# [18] = biological target: T6, Beta-2 adrenergic receptor; assay: Dose response for HTS for Beta-2AR agonists via FAP method from Powderset3.; type: functional
# HEK293 = assay: cells; type: functional, cell-based; conditions: Homo sapiens
# [19] = biological target: Nuclear receptor subfamily 0 group B member 1 (Homo sapiens, UniProt P51843); assay: Luminescence-based cell-based high throughput dose response assay for inhibitors of the orphan nuclear receptor subfamily 0, group B, member 1 (DAX1; NR0B1). [Related pubchem assays (depositor defined):AID504766, AID504790]; type: functional
# [20] = MDA-MB-231 cell growth inhibition, dose response, cytotoxicity control for RAD54 inhibitor project, CellTiter-Glo luminescence, cherry-pick (AID 651692); type: functional, cell-based
# [21] = HepG2 cell cytotoxicity, dose response, cytotoxicity control, ATP luminescence, cherry-pick, activator set 2 (AID 1053143); type: functional, cell-based
# [22] = biological target: T7, DNA repair and recombination protein RAD54-like (Homo sapiens, UniProt Q92698); assay: inhibitors of human RAD54 branch migration, confirmation, biochemical, fluorescence, cherry-picked samples, dose series (AID 651657); type: functional
# T7 sequence (Q92698 whole entry): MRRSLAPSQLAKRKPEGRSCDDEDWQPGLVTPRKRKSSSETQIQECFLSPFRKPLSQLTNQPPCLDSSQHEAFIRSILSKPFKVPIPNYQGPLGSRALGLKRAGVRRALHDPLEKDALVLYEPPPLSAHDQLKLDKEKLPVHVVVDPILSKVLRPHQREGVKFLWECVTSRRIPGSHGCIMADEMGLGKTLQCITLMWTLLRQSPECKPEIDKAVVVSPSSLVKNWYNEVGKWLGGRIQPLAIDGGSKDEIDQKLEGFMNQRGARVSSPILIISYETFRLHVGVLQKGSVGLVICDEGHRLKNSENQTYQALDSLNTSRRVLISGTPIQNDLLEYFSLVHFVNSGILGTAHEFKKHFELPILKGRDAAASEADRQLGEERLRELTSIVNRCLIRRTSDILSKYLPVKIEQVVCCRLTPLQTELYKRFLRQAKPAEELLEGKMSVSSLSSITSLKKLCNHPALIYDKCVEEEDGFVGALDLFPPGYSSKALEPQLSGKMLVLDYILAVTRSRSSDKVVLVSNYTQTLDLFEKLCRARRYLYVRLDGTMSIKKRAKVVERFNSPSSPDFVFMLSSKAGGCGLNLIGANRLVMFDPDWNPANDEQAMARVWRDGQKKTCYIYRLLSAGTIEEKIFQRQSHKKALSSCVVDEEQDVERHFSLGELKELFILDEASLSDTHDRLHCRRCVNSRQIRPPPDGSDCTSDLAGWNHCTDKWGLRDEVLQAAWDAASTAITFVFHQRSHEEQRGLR
# [23] = biological target: T8, Probable nicotinate-nucleotide adenylyltransferase (Staphylococcus aureus (strain N315), UniProt P65502); type: functional, Staphylococcus aureus subsp. aureus N315; conditions: read-out: IC50_Mean;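 on IC50 Mean: confirmatory dose-response retesting of NadD inhibitor hits first found in an ultra-high-throughput screen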
# T8 sequence (P65502 whole entry): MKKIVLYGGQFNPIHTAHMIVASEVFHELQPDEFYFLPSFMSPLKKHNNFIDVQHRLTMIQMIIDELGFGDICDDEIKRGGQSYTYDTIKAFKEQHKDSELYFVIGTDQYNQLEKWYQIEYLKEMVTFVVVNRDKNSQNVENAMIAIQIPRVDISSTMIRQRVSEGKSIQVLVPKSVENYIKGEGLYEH
# [24] = biological target: T9, Heat shock factor protein 1 (Mus musculus, UniProt P38532); assay: HSF1 potentiators in luciferase reporter cells, confirmation, cell-based, NIH3T3, luminescence, dose retest (AID 435004); type: functional;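 further: stress induced by proteasome inhibitor MG132 added 30 min after compound; luciferase reporter driven by HSF1 response element in NIH3T3 cells; actives raise luminescence as potentiators of the MG132 stress response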
# T9 sequence (P38532 whole entry): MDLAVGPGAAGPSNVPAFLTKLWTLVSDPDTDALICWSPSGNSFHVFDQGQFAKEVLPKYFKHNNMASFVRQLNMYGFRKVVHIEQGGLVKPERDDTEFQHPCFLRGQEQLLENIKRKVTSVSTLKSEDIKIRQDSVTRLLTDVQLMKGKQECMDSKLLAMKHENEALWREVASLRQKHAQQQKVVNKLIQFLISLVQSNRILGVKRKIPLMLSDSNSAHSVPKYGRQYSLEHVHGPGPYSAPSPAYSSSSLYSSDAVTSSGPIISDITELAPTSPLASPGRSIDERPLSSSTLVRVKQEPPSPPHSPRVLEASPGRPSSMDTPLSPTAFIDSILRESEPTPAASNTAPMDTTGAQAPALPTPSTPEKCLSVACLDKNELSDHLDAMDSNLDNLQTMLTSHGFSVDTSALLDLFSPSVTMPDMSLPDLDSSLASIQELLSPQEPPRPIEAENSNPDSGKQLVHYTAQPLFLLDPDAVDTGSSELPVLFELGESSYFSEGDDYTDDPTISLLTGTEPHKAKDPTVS
# [25] = biological target: T8, Probable nicotinate-nucleotide adenylyltransferase; type: functional, Staphylococcus aureus subsp. aureus N315
smiles,measurement,setting,value
CN(C)c1ccc(C(=O)OCC(=O)Nc2ccc(S(N)(=O)=O)cc2)cc1,IC50,[1],> 47.1 µM (inactive)
same,IC50,[2],> 66.6 µM (inactive)
same,IC50,[3],7.3 µM (active)
same,IC50,[4],4.13 µM (active)
same,IC50,[5],8.63 µM (active)
same,EC50,[6],> 53 µM (inactive)
same,IC50,[7],12.8 µM (active)
same,IC50,[8],6.56 µM (active)
same,IC50,[9],67.7 µM (inactive)
CC(C)(C)C1CCC(OCC(O)CN2CCN(c3ccccn3)CC2)CC1 (stereo not drawn),EC50,Mu-type opioid receptor,92.5 µM (inactive)
same,EC50,[10],0.548 µM (active)
CC1=CC2=NC(=O)/C(=C\c3ccc(-c4cccc(Cl)c4)o3)C(=N)N2O1,IC50,[11],13.3 µM (inactive)
same,IC50,[12],2.03 µM (active)
Cc1ccc2[nH]c3c(NCCCN4CCCC4=O)ncnc3c2c1,IC50,[13],23.3 µM (inactive)
same,IC50,[14],27.9 µM (inactive)
same,IC50,[15],17.9 µM (inactive)
CN=C(S)NNC(=O)c1cccn(Cc2ccc(Cl)c(Cl)c2)c1=O,IC50,Albumin,> 94 µM (inactive)
Cc1ncc(CN2CCCC(C(=O)Nc3ccc(-c4cccc(F)c4)cc3)C2)s1 (stereo not drawn),AC50,[16],6.84 µM (active)
same,EC50,[17],3.37 µM (active)
same,EC50,[18],0.731 µM (active)
CCN1C(=O)CCN(C2CCCC2)c2nc(Nc3ccc(C(=O)NC4CCN(C)CC4)cc3OC)ncc21,IC50,HEK293,> 67.5 µM (inactive)
same,IC50,[19],> 67.5 µM (inactive)
same,AC50,[20],36.4 µM (active)
same,AC50,[21],13 µM (active)
same,AC50,[22],39.3 µM (active)
O=C(CNc1cccc2ccccc12)N/N=C/c1ccc([N+](=O)[O-])cc1,IC50,[23],80 µM (inactive)
same,EC50,[24],> 260 µM (inactive)
same,IC50,[25],44.3 µM (active)
